Measurements: US7342011B2, “Rifamycin analogs and uses thereof” (priority 2003, dated 2008)
Values after ≈ are worked out from the molar mass of the structure shown.

These molecules were tested on E. coli (assay: MIC assay, E. coli).
Type: cell-based
“25-O-deacetyl-5′-[(8aR)octahydropyrrolo[1,2-a]pyrazin-2-yl]benzthiazinorifamycin [Compound 78]” was tested, and the “MIC (μg/mL) E. coli” value was 4 µg/mL.
For `COC1C=COC2(C)Oc3c(C)c(O)c4c(=O)c(c5oc6cc(N7CC8C(C7)C8NC(=O)OCC[Si](C)(C)C)cc(O)c6nc-5c4c3C2=O)NC(=O)C(C)=CC=CC(C)C(O)C(C)C(O)C(C)C(OC(C)=O)C1C` [Compound 2, 3′-hydroxy-5′-[6-(2-trimethylsilyl)ethylcarbamyl-(1R,5S)-3-azabicyclo[3.1.0]hex-3-yl]benzoxazinorifamycin], the “MIC (μg/mL) E. coli” value was greater than 8 µg/mL.
With `COC1C=COC2(C)Oc3c(C)c(O)c4c(=O)c(c5oc6cc(N7CC8C(N)C8C7)cc(O)c6nc-5c4c3C2=O)NC(=O)C(C)=CC=CC(C)C(O)C(C)C(O)C(C)C(OC(C)=O)C1C` [Compound 4, 3′-hydroxy-5′-[6-amino-(1R,5S)-3-azabicyclo[3.1.0]hex-3-yl]benzoxazinorifamycin] the “MIC (μg/mL) E. coli” value was greater than 8 µg/mL.
With `CO[C@H]1/C=C/O[C@@]2(C)Oc3c(C)c(O)c4c(=O)c(c5oc6cc(N7C[C@@H]8CCCN[C@@H]8C7)cc(O)c6nc-5c4c3C2=O)NC(=O)/C(C)=C\C=C\[C@H](C)[C@H](O)[C@@H](C)[C@@H](O)[C@@H](C)[C@H](OC(C)=O)[C@@H]1C` [Compound 5, 3′-hydroxy-5′-[(4aS,7aS)-octahydro-6H-pyrrolo[3,4-b]pyridin-6-yl]benzoxazinorifamycin] the “MIC (μg/mL) E. coli” value was 8 µg/mL (≈ 8.65 µM).
In the case of `CO[C@H]1/C=C/O[C@@]2(C)Oc3c(C)c(O)c4c(=O)c(c5oc6cc(N7C[C@@H]8CCCN[C@@H]8C7)cc(O)c6nc-5c4c3C2=O)NC(=O)/C(C)=C\C=C\[C@H](C)[C@H](O)[C@@H](C)[C@@H](O)[C@@H](C)[C@H](O)[C@@H]1C` [Compound 7, 25-O-deacetyl-3′-hydroxy-5′-[(4aS,7aS)-octahydro-6H-pyrrolo[3,4-b]pyridin-6-yl]benzoxazinorifamycin], the “MIC (μg/mL) E. coli” value is reported as greater than 8 µg/mL.
`CO[C@H]1/C=C/O[C@@]2(C)Oc3c(C)c(O)c4c(=O)c(c5oc6cc(N7CCC(N8CCOCC8)CC7)cc(O)c6nc-5c4c3C2=O)NC(=O)/C(C)=C\C=C\[C@H](C)[C@H](O)[C@@H](C)[C@@H](O)[C@@H](C)[C@H](OC(C)=O)[C@@H]1C` [Compound 9, 3′-hydroxy-5′-(4-morpholinyl-1-piperidinyl)benzoxazinorifamycin] was tested, and the “MIC (μg/mL) E. coli” value was 8 µg/mL (≈ 8.26 µM).
For `CO[C@H]1/C=C/O[C@@]2(C)Oc3c(C)c(O)c4c(=O)c(c5oc6cc(N7CC8CCC(C7)N8)cc(O)c6nc-5c4c3C2=O)NC(=O)/C(C)=C\C=C\[C@H](C)[C@H](O)[C@@H](C)[C@@H](O)[C@@H](C)[C@H](OC(C)=O)[C@@H]1C` [Compound 10, 3′-hydroxy-5′-(3,8-diazabicyclo[3.2.1]octan-3-yl)benzoxazinorifamycin], the “MIC (μg/mL) E. coli” value was greater than 8 µg/mL.
For `CO[C@H]1/C=C/O[C@@]2(C)Oc3c(C)c(O)c4c(=O)c(c5oc6cc(N7CCC(N8CCOCC8)CC7)cc(O)c6nc-5c4c3C2=O)NC(=O)/C(C)=C\C=C\[C@H](C)[C@H](O)[C@@H](C)[C@@H](O)[C@@H](C)[C@H](O)[C@@H]1C` [Compound 11, 25-O-deacetyl-3′-hydroxy-5′-(4-morpholinyl-1-piperidinyl)benzoxazinorifamycin], the “MIC (μg/mL) E. coli” value was 4 µg/mL (≈ 4.31 µM).
For `CO[C@H]1/C=C/O[C@@]2(C)Oc3c(C)c(O)c4c(=O)c(c5oc6cc(N7C[C@H]8CCCN[C@H]8C7)cc(O)c6nc-5c4c3C2=O)NC(=O)/C(C)=C\C=C\[C@H](C)[C@H](O)[C@@H](C)[C@@H](O)[C@@H](C)[C@H](OC(C)=O)[C@@H]1C` [Compound 12, 3′-hydroxy-5′-[(4aR,7aR)-octahydro-6H-pyrrolo[3,4-b]pyridin-6-yl]benzoxazinorifamycin], the “MIC (μg/mL) E. coli” value was 8 µg/mL (≈ 8.65 µM).
With `CO[C@H]1/C=C/O[C@@]2(C)Oc3c(C)c(O)c4c(=O)c(c5oc6cc(N7CCC(NC(=O)OCC(C)C)CC7)cc(O)c6nc-5c4c3C2=O)NC(=O)/C(C)=C\C=C\[C@H](C)[C@H](O)[C@@H](C)[C@@H](O)[C@@H](C)[C@H](OC(C)=O)[C@@H]1C` [Compound 13] the “MIC (μg/mL) E. coli” value was 4 µg/mL (≈ 4 µM).
